According to US9224959B2, “Method for producing a pi-electron conjugated compound” (Ricoh Company, Ltd., priority 2009, dated 2015):

What was measured:
[1] = carboxylic acid as eliminated component; cited from earlier work
[2] = Evaluation of solubility (saturated solution after reflux and cooling to room temperature); format: physicochemical; settings: refluxed 10 min, cooled to room temperature, left 16 hours, 0.2 μm PTFE filtered
Description: The mixture was further stirred for 1 hour and left to stand for 16 hours, and the supernatant was filtered using a 0.2 μm-PTFE filter, to thereby obtain a saturated solution. The saturated solution was dried under reduced pressure, and the solubility of the precursor in each solvent was calculated.

## O=C(O)CC(F)(F)F [3,3,3-trifluoropropionic acid]
[1]
  Acidity: 3.0 pKa

## CC(C)(C)C(=O)OC1CCC(OC(=O)C(C)(C)C)c2cc(-c3cc4sc(-c5ccc6c(c5)C(OC(=O)C(C)(C)C)CCC6OC(=O)C(C)(C)C)cc4s3)ccc21 (stereo not shown) [Compound 12]
[2]
  Solubility in THF: A (the solubility is 0.5% by mass or more)
  Solubility in Anisole: A (the solubility is 0.5% by mass or more)
  Solubility in Chloroform: A (the solubility is 0.5% by mass or more)
  Solubility in Toluene: A (the solubility is 0.5% by mass or more)

## O=C(CC(F)(F)F)OC1CCC(OC(=O)CC(F)(F)F)c2cc(-c3cc4sc(-c5ccc6c(c5)C(OC(=O)CC(F)(F)F)CCC6OC(=O)CC(F)(F)F)cc4s3)ccc21 (stereo not shown) [Compound 13]
[2]
  Solubility in THF: A (the solubility is 0.5% by mass or more)
  Solubility in Anisole: B (the solubility is 0.1% by mass or more to less than 0.5% by mass)
  Solubility in Chloroform: A (the solubility is 0.5% by mass or more)
  Solubility in Toluene: A (the solubility is 0.5% by mass or more)

## O=C(CC(F)(F)F)OC1CCC(OC(=O)CC(F)(F)F)c2cc(-c3cc4cc5sc(-c6ccc7c(c6)C(OC(=O)CC(F)(F)F)CCC7OC(=O)CC(F)(F)F)cc5cc4s3)ccc21 (stereo not shown) [Compound 14]
[2]
  Solubility in THF: A (the solubility is 0.5% by mass or more)
  Solubility in Anisole: A (the solubility is 0.5% by mass or more)
  Solubility in Chloroform: A (the solubility is 0.5% by mass or more)
  Solubility in Toluene: B (the solubility is 0.1% by mass or more to less than 0.5% by mass)

## O=C(CC(F)(F)F)OC1CCC(OC(=O)CC(F)(F)F)c2cc(-c3ccc4c(c3)sc3c5ccc(-c6ccc7c(c6)C(OC(=O)CC(F)(F)F)CCC7OC(=O)CC(F)(F)F)cc5sc43)ccc21 (stereo not shown) [Compound 16]
[2]
  Solubility in THF: A (the solubility is 0.5% by mass or more)
  Solubility in Anisole: B (the solubility is 0.1% by mass or more to less than 0.5% by mass)
  Solubility in Chloroform: A (the solubility is 0.5% by mass or more)
  Solubility in Toluene: B (the solubility is 0.1% by mass or more to less than 0.5% by mass)

## c1ccc2cc(-c3cc4sc(-c5ccc6ccccc6c5)cc4s3)ccc2c1 [Compound 17]
[2]
  Solubility in THF: D (the solubility is less than 0.005% by mass)
  Solubility in Anisole: D (the solubility is less than 0.005% by mass)
  Solubility in Chloroform: D (the solubility is less than 0.005% by mass)
  Solubility in Toluene: D (the solubility is less than 0.005% by mass)

## c1ccc2cc(-c3cc4cc5sc(-c6ccc7ccccc7c6)cc5cc4s3)ccc2c1 [Compound 18]
[2]
  Solubility in THF: D (the solubility is less than 0.005% by mass)
  Solubility in Anisole: D (the solubility is less than 0.005% by mass)
  Solubility in Chloroform: D (the solubility is less than 0.005% by mass)
  Solubility in Toluene: D (the solubility is less than 0.005% by mass)

## c1ccc2cc(-c3ccc4c(c3)sc3c5ccc(-c6ccc7ccccc7c6)cc5sc43)ccc2c1 [Compound 19]
[2]
  Solubility in THF: D (the solubility is less than 0.005% by mass)
  Solubility in Anisole: D (the solubility is less than 0.005% by mass)
  Solubility in Chloroform: D (the solubility is less than 0.005% by mass)
  Solubility in Toluene: D (the solubility is less than 0.005% by mass)

## CCCCCC(=O)O [caproic acid]
[1]
  Acidity: 4.6 pKa

## CC(C)(C)C(=O)O [pivalic acid]
[1]
  Acidity: 5.0 pKa
